Assay results: publication PMC5746514 (The Korean Journal of Physiology & Pharmacology : …, 2017)

Biological target: T1, Kv3.1 potassium channel (Kv3.1b) (Rattus norvegicus, UniProt P25122)
T1 sequence (P25122 1-585): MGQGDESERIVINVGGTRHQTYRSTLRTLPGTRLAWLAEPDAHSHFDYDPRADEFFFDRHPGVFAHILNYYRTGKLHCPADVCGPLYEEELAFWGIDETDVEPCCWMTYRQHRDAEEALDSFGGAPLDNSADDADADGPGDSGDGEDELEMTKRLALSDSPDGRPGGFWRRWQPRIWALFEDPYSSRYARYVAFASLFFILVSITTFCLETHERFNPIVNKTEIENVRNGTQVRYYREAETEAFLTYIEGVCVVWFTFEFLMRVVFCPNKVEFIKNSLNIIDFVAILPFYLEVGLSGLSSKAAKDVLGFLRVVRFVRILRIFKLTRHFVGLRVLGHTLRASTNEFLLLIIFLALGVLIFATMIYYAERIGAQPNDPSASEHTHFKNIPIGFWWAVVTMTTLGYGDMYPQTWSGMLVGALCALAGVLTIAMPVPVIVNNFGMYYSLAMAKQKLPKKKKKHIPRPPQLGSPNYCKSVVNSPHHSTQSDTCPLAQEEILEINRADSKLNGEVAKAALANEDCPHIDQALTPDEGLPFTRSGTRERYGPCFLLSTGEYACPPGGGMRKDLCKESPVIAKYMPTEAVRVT
Assay: whole-cell patch clamp of transfected CHO cells
Type: cell-based

IC50: 9.43 µM
SMILES: Fc1ccc([C@@H]2CCNC[C@H]2COc2ccc3c(c2)OCO3)cc1 [paroxetine]
